The target of this test is activated ERK2 (Homo sapiens (Human), UniProt P28482). The test is described as follows: Activated ERK2 kinase assay, ERK2 New conditions (AlphaScreen, ERKtide phosphorylation). The class given is biochemical. The settings on record: 0.25 nM ERK2, 200 nM ERKtide peptide, 35 μM ATP, 30 min preincubation. The procedure: The assay is carried out in 50 mM HEPES [pH 7.5], 5 mM MgCl2, 1 mM DTT, 0.01% Tween-20, 0.05% BSA using 0.25 nM ERK2, 200 nM ERKtide peptide and 35 μM ATP (all concentrations are final in the reaction) in a total volume of 10.25 μL. […] Compound dilution series are prepared in 100% DMSO. ERK2 is preincubated with compounds for 30 minutes at ambient temperature. Reaction is initiated by addition of a substrate cocktail of ERKtide peptide and ATP and is allowed to proceed for 2-3 hours at ambient temperature. Reaction is terminated by addition of 10 μL of a 2× stop buffer consisting of 100 mM Tris-Cl [pH 7.5], 25 mM EDTA, 0.01% Tween 20, 10 μg/mL of AlphaScreen Protein A Acceptor Beads, 10 μg/mL of Streptavidin Donor Beads (PerkinElmer, Waltham, Mass.), and 1.4 μg/mL phospho-EGF Receptor (Thr669) antibody (Cat #3056, Cell Signaling Technology, Danvers, Mass.). Terminated reactions are read, after overnight incubation in the dark, on an EnVision Multilabel Plate Reader (PerkinElmer, Waltham, Mass.), with excitation and emission wavelengths set to 680 nm and 570 nm, respectively. IC50 values are determined using a four-parameter fit.
Chain of activated ERK2 (P28482 whole entry): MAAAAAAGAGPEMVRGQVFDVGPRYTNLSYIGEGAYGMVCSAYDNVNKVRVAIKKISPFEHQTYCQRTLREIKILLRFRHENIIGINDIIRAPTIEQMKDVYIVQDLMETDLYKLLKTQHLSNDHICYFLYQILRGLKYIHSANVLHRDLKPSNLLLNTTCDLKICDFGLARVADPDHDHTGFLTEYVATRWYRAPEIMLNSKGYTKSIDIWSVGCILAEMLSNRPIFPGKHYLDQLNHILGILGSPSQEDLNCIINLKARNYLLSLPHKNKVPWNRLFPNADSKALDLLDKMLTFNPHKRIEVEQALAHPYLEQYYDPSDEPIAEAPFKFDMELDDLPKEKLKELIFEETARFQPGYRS
For orientation: In Alpha technology, singlet oxygen from a donor bead excites a nearby acceptor bead.
Broadly, the IC50 is the midpoint of a concentration-inhibition curve. A high value points to weaker potency. With `C[C@@H](NC(=O)c1ccc(-c2cc(C3CCC(=O)NC3)cnc2N)cc1F)c1cccc(Cl)c1` (mixture of isomers) [Example 119, 4-(2-amino-5-(6-oxopiperidin-3-yl)pyridin-3-yl)-N-((R)-1-(3-chlorophenyl)ethyl)-2-fluorobenzamide], inhibition was half-maximal at 0.549 nM (IC50).

Take `COC1CCCC(c2cnc(N)c(-c3ccc(C(=O)N[C@H](CO)c4cccc(Cl)c4)c(F)c3)n2)C1` (mixture of isomers) [Example 123, cis-4-(3-amino-6-(3-methoxycyclohexyl)pyrazin-2-yl)-N-((S)-1-(3-chlorophenyl)-2-hydroxyethyl)-2-fluorobenzamide]: the IC50 was 0.593 nM.

`Nc1ncc(C2CCS(=O)(=O)C2)cc1-c1ccc(C(=O)NCc2ccccc2)c(F)c1` (racemic) [Example 4, 4-(2-amino-5-(1,1-dioxidotetrahydrothiophen-3-yl)pyridin-3-yl)-N-benzyl-2-fluorobenzamide] displayed an IC50 of 315 nM. Against the preceding compound, the IC50 is about 530-fold higher.

`Nc1ncc([C@H]2CCC[C@@H](O)C2)nc1-c1ccc(C(=O)NCc2ccccc2)c(F)c1` (racemic) [Example 12, (+/−)-4-(3-amino-6-((1S,3R)-3-hydroxycyclohexyl)pyrazin-2-yl)-N-benzyl-2-fluorobenzamide] showed an IC50 of 39.6 nM. This IC50 lies about 8-fold lower than the previous one.

Compound `CS(=O)(=O)[C@@H]1CCC[C@@H](c2cnc(N)c(-c3ccc(C(=O)NCc4ccccc4)c(F)c3)n2)C1` (racemic) [Example 13, (+/−)-4-(3-amino-6-((1R,3R)-3-(methylsulfonyl)cyclohexyl)pyrazin-2-yl)-N-benzyl-2-fluorobenzamide] displayed an IC50 of 361 nM.

`Nc1ncc(C2CCOCC2)nc1-c1ccc(C(=O)NC(c2ccccc2)C(F)F)c(F)c1` (racemic) [Example 50, (+/−)-4-(3-amino-6-(tetrahydro-2H-pyran-4-yl)pyrazin-2-yl)-N-(2,2-difluoro-1-phenylethyl)-2-fluorobenzamide]: the IC50 was 8.39 nM.

In turn, `Nc1ncc(C2CCOCC2)nc1-c1ccc(C(=O)NC(c2ccccc2)C(F)(F)F)c(F)c1` (racemic) [Example 51, (+/−)-4-(3-amino-6-(tetrahydro-2H-pyran-4-yl)pyrazin-2-yl)-2-fluoro-N-(2,2,2-trifluoro-1-phenylethyl)benzamide] displayed an IC50 of 27 nM.

As to `CC(CO)c1cnc(N)c(-c2ccc(C(=O)NCc3ccccc3)c(F)c2)n1` (racemic) [Example 115, (+/−)-4-(3-amino-6-(1-hydroxypropan-2-yl)pyrazin-2-yl)-N-benzyl-2-fluorobenzamide], the concentration for half-maximal inhibition (IC50) stood at 274 nM.

Compound `Nc1ncc(C2CCC(=O)NC2)nc1-c1ccc(C(=O)NCc2ccccc2)c(F)c1` (racemic) [Example 117, (+/−)-4-(3-amino-6-(6-oxopiperidin-3-yl)pyrazin-2-yl)-N-benzyl-2-fluorobenzamide] showed an IC50 of 4.79 nM.

`Nc1ncc(C2CCC(=O)NC2)cc1-c1ccc(C(=O)NCc2ccccc2)c(F)c1` (racemic) [Example 118, (+/−)-4-(2-amino-5-(6-oxopiperidin-3-yl)pyridin-3-yl)-N-benzyl-2-fluorobenzamide] yielded an IC50 of 17.6 nM.

As for `CO[C@@H]1CCC[C@H](c2cnc(N)c(-c3ccc(C(=O)NCc4ccccc4)c(F)c3)n2)C1` (racemic) [Example 124, (+/−)-cis-4-(3-amino-6-(3-methoxycyclohexyl)pyrazin-2-yl)-N-benzyl-2-fluorobenzamide], the IC50 turned out to be 62.6 nM.

Consider `Nc1ncc([C@@H]2CCS(=O)(=O)C2)cc1-c1ccc(C(=O)NCc2ccccc2)c(F)c1` (single isomer, unassigned) [Example 5], for which the midpoint of inhibition, the IC50, lay at 278 nM. This IC50 is about 4.4-fold higher than that of the compound before.

For the compound `Nc1ncc([C@H]2CCS(=O)(=O)C2)cc1-c1ccc(C(=O)NCc2ccccc2)c(F)c1` (single isomer, unassigned) [Example 6], inhibition was half-maximal at 354 nM (IC50).

`CN(Cc1ncccn1)C(=O)c1ccc(-c2cc(C3CCOCC3)cnc2N)cc1F` [Example 3, 4-(2-amino-5-(tetrahydro-2H-pyran-4-yl)pyridin-3-yl)-2-fluoro-N-methyl-N-(pyrimidin-2-ylmethyl)benzamide] came in with an IC50 of 12300 nM.

As for `Nc1ncc([C@@H]2CN[C@H](CO)C2)cc1-c1ccc(C(=O)N[C@H](CO)c2cccc(Cl)c2)c(F)c1` [Example 7, 4-(2-amino-5-((3R,5S)-5-(hydroxymethyl)pyrrolidin-3-yl)pyridin-3-yl)-N—((S)-1-(3-chlorophenyl)-2-hydroxyethyl)-2-fluorobenzamide], the IC50 came to 65.2 nM.

`Nc1ncc([C@H]2C[C@H]3COCC(=O)N3C2)cc1-c1ccc(C(=O)N[C@H](CO)c2cccc(Cl)c2)c(F)c1` [Example 8, 4-(2-amino-5-((7R,8aS)-4-oxohexahydro-1H-pyrrolo[2,1-c][1,4]oxazin-7-yl)pyridin-3-yl)-N—((S)-1-(3-chlorophenyl)-2-hydroxyethyl)-2-fluorobenzamide] gave an IC50 of 4.12 nM.

Compound `Nc1ncc([C@H]2C[C@H]3COC(=O)N3C2)cc1-c1ccc(C(=O)N[C@H](CO)c2cccc(Cl)c2)c(F)c1` [Example 9, 4-(2-amino-5-((6R,7aS)-3-oxohexahydropyrrolo[1,2-c]oxazol-6-yl)pyridin-3-yl)-N—((S)-1-(3-chlorophenyl)-2-hydroxyethyl)-2-fluorobenzamide] yielded an IC50 of 3.57 nM.

Regarding `N=C1OC[C@@H]2C[C@H](c3cnc(N)c(-c4ccc(C(=O)N[C@H](CO)c5cccc(Cl)c5)c(F)c4)c3)CN12` [Example 10, 4-(2-amino-5-((6R,7aS)-3-iminohexahydropyrrolo[1,2-c]oxazol-6-yl)pyridin-3-yl)-N—((S)-1-(3-chlorophenyl)-2-hydroxyethyl)-2-fluorobenzamide], the IC50 was 12.1 nM.

`Nc1ncc([C@H]2C[C@H]3COC(=S)N3C2)cc1-c1ccc(C(=O)N[C@H](CO)c2cccc(Cl)c2)c(F)c1` [Example 11, 4-(2-amino-5-((6R,7aS)-3-thioxohexahydropyrrolo[1,2-c]oxazol-6-yl)pyridin-3-yl)-N—((S)-1-(3-chlorophenyl)-2-hydroxyethyl)-2-fluorobenzamide]: the IC50 is 3.77 nM.

The compound `Nc1ncc([C@H]2CC[C@H](O)CC2)nc1-c1ccc(C(=O)NCc2ccccc2)c(F)c1` [Example 14, 4-(3-amino-6-((1r,4r)-4-hydroxycyclohexyl)pyrazin-2-yl)-N-benzyl-2-fluorobenzamide] returned an IC50 of 12.7 nM.

The compound `Nc1ncc([C@H]2CC[C@@H](O)CC2)nc1-c1ccc(C(=O)NCc2ccccc2)c(F)c1` [Example 15, 4-(3-amino-6-((1s,4s)-4-hydroxycyclohexyl)pyrazin-2-yl)-N-benzyl-2-fluorobenzamide] gave an IC50 of 235 nM.

In turn, `COC(=O)CCc1cnc(N)c(-c2ccc(C(=O)NCc3ccccc3)c(F)c2)n1` [Example 19, methyl 3-(5-amino-6-(4-(benzylcarbamoyl)-3-fluorophenyl)pyrazin-2-yl)propanoate] had an IC50 of 6030 nM.

In the case of `CNC(=O)CCc1cnc(N)c(-c2ccc(C(=O)NCc3ccccc3)c(F)c2)n1` [Example 20, 4-(3-amino-6-(3-(methylamino)-3-oxopropyl)pyrazin-2-yl)-N-benzyl-2-fluorobenzamide], half-maximal inhibition (IC50) was put at 1090 nM.

For `CS(=O)(=O)CCc1cnc(N)c(-c2ccc(C(=O)NCc3ccccc3)c(F)c2)n1` [Example 21, 4-(3-amino-6-(2-(methylsulfonyl)ethyl)pyrazin-2-yl)-N-benzyl-2-fluorobenzamide], 2670 nM corresponded to half-maximal inhibition (IC50).
